# Experimental data: patent US10517889B2, “Modulators of SMAD7 expression” (Ionis Pharmaceuticals, Inc., priority 2017, dated 2019)
# Strand notation (5' to 3'): a small letter for the sugar, then the base; units joined by * are phosphorothioate-linked, units joined directly phosphodiester-linked; [ ] holds rarer units or linkages, { } end groups; capitals alone tell only the bases. k = constrained ethyl (cEt); [5mC] = 5-methylcytosine; d = 2'-deoxy (DNA)
# Tested on: human SMAD7 mRNA
# Test: Antisense inhibition of human SMAD7 mRNA expression in Hep3B cells by 3-10-3 cEt gapmers, 10,000 nM, electroporation (Example 2)
# Assay type: cell-based
# Details: approximately 24 hours
# Outline: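 SMAD7 mRNA was measured by real-time PCR (RTS5062) with RiboGreen total-RNA normalization, about 24 h after 10,000 nM gapmer was delivered by electroporation into Hep3B cells at 20,000 per well. Gapmers were 16-mer 3-10-3 cEt, fully phosphorothioate; values are % inhibition versus untreated controls.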
# [1] = SMAD7 mRNA, Hep3B cells, 10,000 nM antisense oligonucleotide, electroporation, primer probe set RTS5062, relative to untreated control cells
# [2] = Hep3B cells, electroporation with 10,000 nM antisense oligonucleotide, primer probe set RTS5062, relative to untreated control cells
# [3] = Hep3B cells, electroporation with 10,000 nM antisense oligonucleotide, SMAD7 mRNA by RT-PCR (RTS5062), relative to untreated control cells
# [4] = Hep3B cells, 10,000 nM antisense oligonucleotide, electroporation, RT-PCR primer probe set RTS5062, relative to untreated control cells
# [5] = Hep3B cells, electroporation with 10,000 nM antisense oligonucleotide, RTS5062, percent inhibition of SMAD7 mRNA relative to untreated control cells
# [6] = Hep3B cells, electroporation, 10,000 nM antisense oligonucleotide, RTS5062, relative to untreated control cells
substance,measurement,setting,value
829791 (kT*kT*k[5mC]*d[5mC]*d[5mC]*dG*dT*dA*dA*dG*dA*dT*dT*k[5mC]*kA*k[5mC]; antisense) [compound 829791],% Inhibition,[1],38%
799026 (k[5mC]*k[5mC]*kG*d[5mC]*dT*dT*dG*dG*dG*dA*d[5mC]*dT*dG*k[5mC]*kA*kA; antisense) [compound 799026],% inhibition of SMAD7 mRNA expression,[2],1%
830052 (kG*kA*kG*dT*dA*dA*d[5mC]*d[5mC]*dA*dG*d[5mC]*dT*dG*kT*k[5mC]*kT; antisense) [compound 830052],% Inhibition,[3],35%
799453 (antisense kA*k[5mC]*kA*d[5mC]*dA*dG*d[5mC]*dA*d[5mC]*dT*dG*d[5mC]*d[5mC]*kA*kG*kG) [compound 799453],% Inhibition,[3],58%
829787 (antisense kG*kG*kA*dA*dT*dG*d[5mC]*d[5mC]*dT*dG*dA*dG*dA*kT*k[5mC]*k[5mC]) [compound 829787],% Inhibition,[1],30%
830102 (kA*kG*k[5mC]*d[5mC]*d[5mC]*dG*d[5mC]*dT*d[5mC]*dT*d[5mC]*dA*dG*k[5mC]*k[5mC]*kA; antisense) [compound 830102],% Inhibition,[3],43%
799400 (antisense kG*kG*kA*dA*dA*dA*d[5mC]*d[5mC]*dT*d[5mC]*d[5mC]*dA*dA*kA*kT*kT) [compound 799400],% inhibition of SMAD7 mRNA expression,[2],0%
798893 (kT*kG*kG*d[5mC]*d[5mC]*d[5mC]*d[5mC]*dA*dG*d[5mC]*d[5mC]*d[5mC]*dT*kT*k[5mC]*kA; antisense) [compound 798893],% Inhibition,[4],77%
799875 (kG*kT*kG*d[5mC]*dA*dG*dA*d[5mC]*dT*dG*dG*dA*dA*kA*kA*kG; antisense) [compound 799875],% Inhibition,[4],41%
798871 (kA*kA*kA*dG*d[5mC]*d[5mC]*dT*dT*dG*dA*dT*dG*dG*kA*kG*kA; antisense) [compound 798871],% Inhibition,[4],20%
772590 (kT*kG*kT*dG*dA*d[5mC]*d[5mC]*dG*dA*dT*d[5mC]*d[5mC]*d[5mC]*k[5mC]*kA*kG; antisense) [compound 772590],% Inhibition,[3],37%
800771 (antisense k[5mC]*k[5mC]*k[5mC]*dG*d[5mC]*dA*dG*d[5mC]*dT*d[5mC]*dG*d[5mC]*d[5mC]*kT*k[5mC]*k[5mC]) [compound 800771],% Inhibition,[1],46%
799315 (antisense k[5mC]*kA*k[5mC]*d[5mC]*dA*dA*dG*dA*dT*d[5mC]*d[5mC]*dA*dT*k[5mC]*kT*kT) [compound 799315],% Inhibition,[5],15%
772556 (antisense kA*kG*k[5mC]*dA*dG*dG*dA*dG*dG*d[5mC]*dA*d[5mC]*dG*k[5mC]*kG*kG) [compound 772556],% Inhibition,[3],43%
830132 (antisense kT*kA*k[5mC]*d[5mC]*d[5mC]*dG*d[5mC]*d[5mC]*d[5mC]*dA*d[5mC]*dT*d[5mC]*k[5mC]*k[5mC]*k[5mC]) [compound 830132],% Inhibition,[3],8%
798747 (antisense k[5mC]*kG*kG*d[5mC]*d[5mC]*dT*dG*dG*dA*dG*d[5mC]*dA*dG*k[5mC]*kA*kG) [compound 798747],% inhibition of SMAD7 mRNA expression,[2],14%
799758 (antisense k[5mC]*kA*k[5mC]*d[5mC]*dG*dT*dT*dA*d[5mC]*dT*dG*dG*dA*k[5mC]*kA*k[5mC]) [compound 799758],% inhibition of SMAD7 mRNA expression,[6],57%
830064 (kA*kT*kG*dG*dT*dG*d[5mC]*dT*d[5mC]*dT*dG*d[5mC]*d[5mC]*k[5mC]*kT*kT; antisense) [compound 830064],% Inhibition,[3],29%
830030 (antisense kA*k[5mC]*k[5mC]*dT*dA*dA*dT*dG*dT*d[5mC]*dA*dA*d[5mC]*kA*k[5mC]*kT) [compound 830030],% Inhibition,[3],36%
829778 (antisense kG*kG*kA*dG*d[5mC]*dG*dA*dG*dT*dA*dG*dG*dA*k[5mC]*kG*kA) [compound 829778],% Inhibition,[1],46%
799167 (antisense kA*kA*kG*dA*dA*d[5mC]*dA*dG*dT*dG*dT*d[5mC]*dG*kA*kA*kG) [compound 799167],% inhibition of SMAD7 mRNA expression,[2],58%
799965 (antisense k[5mC]*kT*k[5mC]*d[5mC]*dA*dG*dT*dG*dA*dA*dG*dT*dG*kA*kG*kA) [compound 799965],% Inhibition,[3],0%
799215 (kA*kG*k[5mC]*dA*dA*dA*dG*dT*dG*d[5mC]*dA*dT*d[5mC]*kT*kT*kT; antisense) [compound 799215],% inhibition of SMAD7 mRNA expression,[2],0%
830166 (antisense k[5mC]*kA*k[5mC]*dA*dG*d[5mC]*dT*dG*dT*dA*d[5mC]*d[5mC]*dA*kG*kG*kG) [compound 830166],% Inhibition,[3],48%
799830 (antisense kG*kA*kA*dG*dA*dG*dT*dT*dT*dG*d[5mC]*dG*dA*kG*k[5mC]*k[5mC]) [compound 799830],% Inhibition,[5],55%
830198 (antisense kA*kG*kG*d[5mC]*dT*dA*d[5mC]*dA*d[5mC]*d[5mC]*dA*dA*dA*kG*kA*k[5mC]) [compound 830198],% Inhibition,[3],30%
799295 (antisense kG*kA*k[5mC]*dT*d[5mC]*dG*d[5mC]*dG*dG*d[5mC]*d[5mC]*dT*dT*kG*kA*kT) [compound 799295],% Inhibition,[5],30%
799000 (antisense kG*k[5mC]*k[5mC]*dG*d[5mC]*dA*d[5mC]*dA*d[5mC]*dT*d[5mC]*dA*d[5mC]*kA*k[5mC]*kT) [compound 799000],% Inhibition,[2],42%
799493 (antisense kA*kT*kA*d[5mC]*dA*d[5mC]*dT*dT*dA*dA*dT*d[5mC]*dA*kA*kA*k[5mC]) [compound 799493],% Inhibition,[3],1%
798784 (kG*kA*kG*dT*d[5mC]*dG*dG*d[5mC]*dT*dA*dA*dG*dG*kT*kG*kA; antisense) [compound 798784],% Inhibition,[3],35%
830209 (kA*k[5mC]*k[5mC]*dG*dG*dA*dA*dG*dT*d[5mC]*dT*dT*dG*kT*kA*kT; antisense) [compound 830209],% Inhibition,[3],31%
799557 (kA*kG*k[5mC]*d[5mC]*dA*dG*dT*dT*d[5mC]*dT*dT*dA*dG*kA*kA*kA; antisense) [compound 799557],% inhibition of SMAD7 mRNA expression,[6],28%
799960 (antisense kA*kA*kA*d[5mC]*dA*dG*dG*dG*dT*dT*d[5mC]*d[5mC]*d[5mC]*k[5mC]*k[5mC]*kA) [compound 799960],% Inhibition,[3],8%
798722 (antisense k[5mC]*kT*kT*dG*d[5mC]*d[5mC]*d[5mC]*dA*dG*dG*d[5mC]*dA*dG*k[5mC]*kA*kT) [compound 798722],% Inhibition,[3],0%
799125 (antisense kT*k[5mC]*k[5mC]*d[5mC]*d[5mC]*dG*d[5mC]*dT*dT*dG*d[5mC]*dT*dG*kG*k[5mC]*k[5mC]) [compound 799125],% inhibition of SMAD7 mRNA expression,[2],62%
799152 (antisense kT*kG*kT*d[5mC]*dA*dG*d[5mC]*d[5mC]*dT*dA*dG*dG*dA*kT*kG*kG) [compound 799152],% inhibition of SMAD7 mRNA expression,[2],33%
